Test results: publication PMC5764323, “The etomidate analog ET-26 HCl retains superior myocardial performance: Comparisons with etomidate in vivo and in vitro” (PLoS ONE, 2018)
Where a name gives a salt, the structure may show the parent alone.

Target: T1, human ether-a-go-go-related gene (hERG) channel (Homo sapiens, UniProt Q12809)
T1 construct: gene KCNH2
Test: whole-cell patch clamp, hERG tail current in HEK-293 cells
Assay type: cell-based
From the text: whole-cell patch clamp, hERG tail current in HEK-293 cells on human ether-a-go-go-related gene (hERG) channel | etomidate inhibited the tail current of the hERG in a concentration-dependent manner | The etomidate analogue, ET-26 HCl, inhibited the hERG current in a similar concentration-dependent manner

T1 sequence (Q12809 whole entry): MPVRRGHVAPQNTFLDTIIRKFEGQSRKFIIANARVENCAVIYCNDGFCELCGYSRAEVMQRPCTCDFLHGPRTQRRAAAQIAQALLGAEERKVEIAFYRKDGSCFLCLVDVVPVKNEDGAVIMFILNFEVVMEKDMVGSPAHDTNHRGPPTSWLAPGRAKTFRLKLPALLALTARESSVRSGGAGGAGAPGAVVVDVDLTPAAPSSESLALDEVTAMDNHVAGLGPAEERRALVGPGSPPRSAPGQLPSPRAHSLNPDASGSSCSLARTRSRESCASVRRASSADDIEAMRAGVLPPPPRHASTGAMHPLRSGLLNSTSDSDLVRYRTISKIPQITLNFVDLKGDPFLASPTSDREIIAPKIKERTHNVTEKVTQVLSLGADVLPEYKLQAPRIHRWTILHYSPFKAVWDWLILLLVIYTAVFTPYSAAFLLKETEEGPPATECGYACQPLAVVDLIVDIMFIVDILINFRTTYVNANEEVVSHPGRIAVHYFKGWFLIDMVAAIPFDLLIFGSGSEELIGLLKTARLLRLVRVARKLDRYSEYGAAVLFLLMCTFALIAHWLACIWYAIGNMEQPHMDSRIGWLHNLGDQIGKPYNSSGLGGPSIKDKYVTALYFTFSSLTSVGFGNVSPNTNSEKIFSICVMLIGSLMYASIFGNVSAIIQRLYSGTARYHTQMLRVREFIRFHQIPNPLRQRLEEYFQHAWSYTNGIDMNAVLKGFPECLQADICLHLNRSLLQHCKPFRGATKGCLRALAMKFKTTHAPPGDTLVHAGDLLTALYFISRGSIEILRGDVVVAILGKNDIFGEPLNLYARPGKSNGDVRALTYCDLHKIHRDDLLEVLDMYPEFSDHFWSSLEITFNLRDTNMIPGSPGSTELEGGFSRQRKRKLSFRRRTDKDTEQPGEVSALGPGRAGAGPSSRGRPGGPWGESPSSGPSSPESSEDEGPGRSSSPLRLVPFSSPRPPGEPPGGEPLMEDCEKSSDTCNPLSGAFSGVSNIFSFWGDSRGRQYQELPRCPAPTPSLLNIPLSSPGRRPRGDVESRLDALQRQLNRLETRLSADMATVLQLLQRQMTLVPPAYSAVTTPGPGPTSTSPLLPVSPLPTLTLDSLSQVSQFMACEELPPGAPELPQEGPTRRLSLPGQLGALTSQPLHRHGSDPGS

SMILES	IC50
CCOC(=O)c1cncn1[C@H](C)c1ccccc1 [etomidate]	264 µM
COCCOC(=O)c1cncn1[C@H](C)c1ccccc1 [ET-26 HCl, (R)-2-methoxyethyl1-(1-phenylethyl)-1H-imidazole-5-carboxylate hydrochloride]	743 µM
